Measured values reported in patent US12084407B2, “Cannabigerol derivatives and use thereof as cannabinoid receptor modulators” (CANOPY GROWTH CORPORATION, priority 2019, dated 2024).
Like-named read-outs stand apart in the source and are kept apart here.

How the values were obtained:
[1] = target: T1, human CB2 receptor (Homo sapiens, UniProt P34972); assay: CB2 radioligand competitive binding assay ([3H]CP 55,940 displacement); settings: for Selectivity CB2: fold difference in selectivity between CB1 and CB2 binding, in the column of the receptor with the higher binding affinity
T1 construct: host or cells: CHO-K1
T1 sequence (P34972 whole entry): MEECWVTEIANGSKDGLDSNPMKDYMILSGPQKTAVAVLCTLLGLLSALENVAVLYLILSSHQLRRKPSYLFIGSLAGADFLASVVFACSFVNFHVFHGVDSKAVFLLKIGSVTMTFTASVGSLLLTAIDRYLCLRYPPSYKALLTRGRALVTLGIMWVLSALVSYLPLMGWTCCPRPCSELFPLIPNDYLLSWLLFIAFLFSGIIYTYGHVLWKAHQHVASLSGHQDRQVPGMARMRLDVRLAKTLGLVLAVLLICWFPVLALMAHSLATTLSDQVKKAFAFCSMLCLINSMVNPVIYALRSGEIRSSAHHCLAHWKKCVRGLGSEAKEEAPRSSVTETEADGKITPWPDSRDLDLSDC
Description: Compounds of the present disclosure were tested for CB1 receptor binding affinity and for CB2 receptor binding affinity. As used herein, “binding affinity” is represented by the IC50 value, which was experimentally determined as described herein. The lower the IC50 value the higher the binding affinity. A compound of the present disclosure may be said to have “binding selectivity” if it has a higher binding affinity for one receptor compared to the other.
The membranes were prepared from CHO-K1 (Chinese hamster ovary) cells stably transfected with the human CB2 receptor (Cat. #ES-111-C; Perkin Elmer, Boston, MA). The cells were grown adherently and maintained in Ham's F12 medium containing 10% fetal bovine serum (FBS), penicillin, streptomycin and geneticin (G418) at 37° C. in a humid atmosphere of 5% CO2 following the manufacturer's instructions.
For membrane preparation the cells were washed with PBS and scraped off the plates in cold homogenization buffer (25 mM HEPES (pH 7.4), 2 mM EDTA) containing protease inhibitor cocktail (Sigma Cat. #P8340). The cell suspension was homogenized with a Pro-PK-01200D Polytron Homogenizer (Pro Scientific) and then centrifuged for 30 min at 120,000×g. The supernatant was discarded and the pellet was re-suspended in the homogenization buffer and stored at −80° C. until the time of use.
In this experiment, 3H radiolabeled CP 55,940, i.e. [3H]CP 55,940 (Perkin Elmer, Boston, MA), was used as a radioligand for the CB2 receptor to determine the binding affinity of compounds for the CB2 receptor (Scheme 7; above).
The competition binding experiments (single dose and dose-response) were performed by incubating 0.6 nM of [3H]CP55,940 (specific activity 101 Ci/mmol, Perkin Elmer) and different concentrations of compounds disclosed herein with membranes prepared as above from CHO-K1 cells expressing human CB2 receptor (1 μg of protein/well), 50 mM Tris-HCl (pH 7.4), 5 mM MgCl2, 1 mM CaCl2, and 2 mg/mL BSA.
For the single dose experiments, the compound stocks (usually 10 mM in DMSO) were diluted to working stocks in the binding buffer to give the final compound concentrations of 10 μM and 1 μM. For the dose-response experiments the test compounds were sequentially diluted to provide the desired concentration range for the IC50 determination. In each case the compounds were pre-incubated with the membrane for 20 min, before adding the radioligand.
After incubation with the radioligand for 60 min at 37° C., the incubation was terminated by rapid filtration of assay mixture through MultiScreen®HTS^+ 96-well filter plates (Millipore, Cat. #MSFCNXB), pre-soaked for 60 min with 50 mM Tris-HCl (pH 7.4) containing 0.33% polyethylenimine (PEI). The nonspecific binding (NSB) was determined in the presence of 10 μM unlabelled CP55,940. After drying the filter plate at 50° C. for at least 60 min, the filter-bound radioactivity was determined by scintillation spectrometry using the 1450 MicroBeta Plate Counter (Perkin Elmer, Boston, MA). From the dose-response experiments, the IC50 values were determined (see Table 1, CB2 IC50).
Where the test compound had about the same affinity for both receptors, this is represented by a value of 1.00 in the column for both receptors.

[2] = target: T2, human CB1 receptor (Homo sapiens, UniProt P21554); assay: CB1 radioligand competitive binding assay ([3H]CP 55,940 displacement)
T2 construct: host or cells: CHO-K1
T2 sequence (P21554 whole entry): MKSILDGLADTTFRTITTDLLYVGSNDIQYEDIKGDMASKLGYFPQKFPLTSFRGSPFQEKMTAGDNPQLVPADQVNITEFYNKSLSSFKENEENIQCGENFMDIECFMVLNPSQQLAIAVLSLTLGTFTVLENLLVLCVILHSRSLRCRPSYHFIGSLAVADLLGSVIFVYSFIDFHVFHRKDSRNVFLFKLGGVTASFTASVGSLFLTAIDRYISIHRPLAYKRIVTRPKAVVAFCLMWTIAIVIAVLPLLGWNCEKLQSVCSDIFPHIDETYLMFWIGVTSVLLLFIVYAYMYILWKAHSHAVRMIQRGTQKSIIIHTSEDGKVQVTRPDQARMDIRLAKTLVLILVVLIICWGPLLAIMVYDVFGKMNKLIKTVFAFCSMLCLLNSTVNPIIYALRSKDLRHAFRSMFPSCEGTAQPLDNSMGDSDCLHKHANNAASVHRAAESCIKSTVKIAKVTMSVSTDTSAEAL

[3] = 0.6 nM [3H]CP55,940, membranes from CHO-K1 cells expressing human CB2 receptor, dose-response, read-out: CB2 IC50
[4] = 0.8 nM [3H]CP 55,940, membranes from CHO-K1 cells expressing human CB1 receptor, dose-response, read-out: CB1 IC50

SMILES | IC50 [1, 3] [µM] | Selectivity CB2 [1] [fold] | IC50 [2, 4] [µM] | IC50 [1] [µM] | IC50 [2] [µM]
CCCCCc1cc(O)c(C/C=C(\C)CCC=C(C)C)c(O)c1S(=O)(=O)NC1CCC1 [Compound 63, N-cyclobutyl-3-(3,7-dimethylocta-2,6-dien-1-yl)-2,4-dihydroxy-6-pentylbenzenesulfonamide] | < 0.1 | 24.80 | > 1 |  | 
CCCCCc1cc(O)c(C/C=C(\C)CCC=C(C)C)c(O)c1C(=O)NS(=O)(=O)c1ccccc1 [Compound 58, 3-(3,7-dimethylocta-2,6-dien-1-yl)-2,4-dihydroxy-6-pentyl-N-(phenylsulfonyl)benzamide] | > 1 | 1.88 | > 1 |  | 
CCCCCc1cc(O)c(C/C=C(\C)CCC=C(C)C)c(O)c1S(=O)(=O)Nc1ccccc1 [Compound 24, 3-(3,7-dimethylocta-2,6-dien-1-yl)-2,4-dihydroxy-6-pentyl-N-phenylbenzenesulfonamide] | < 0.1 | 61.50 | 0.1 to 0.49 |  | 
CCCCCc1cc(O)c(C/C=C(\C)CCC=C(C)C)c(O)c1S(C)(=O)=O [Compound 3, 2-(3,7-dimethylocta-2,6-dien-1-yl)-4-(methylsulfonyl)-5-pentylbenzene-1,3-diol] | 0.5 to 0.99 | 1.47 | > 1 |  | 
CCCCCc1cc(O)c(C/C=C(\C)CCC=C(C)C)c(O)c1C(=O)NS(=O)(=O)c1cccnc1 [Compound 66, 3-(3,7-dimethylocta-2,6-dien-1-yl)-2,4-dihydroxy-6-pentyl-N-(pyridin-3-ylsulfonyl)benzamide] | > 1 | 1.88 | > 1 |  | 
CCCCCc1cc(O)c(C/C=C(\C)CCC=C(C)C)c(O)c1S(=O)(=O)Oc1ccccc1 [Compound 67, phenyl-3-(3,7-dimethylocta-2,6-dien-1-yl)-2,4-dihydroxy-6-pentylbenzenesulfonate] | 0.1 to 0.49 | 20.83 | > 1 |  | 
CCCCCc1cc(O)c(C/C=C(\C)CCC=C(C)C)c(O)c1S(=O)(=O)NC(C)C [Compound 23, 3-(3,7-dimethylocta-2,6-dien-1-yl)-2,4-dihydroxy-N-isopropyl-6-pentylbenzenesulfonamide] | 0.1 to 0.49 | 18.43 | > 1 |  | 
C=CCNS(=O)(=O)c1c(CCCCC)cc(O)c(C/C=C(\C)CCC=C(C)C)c1O [Compound 65, N-allyl-3-(3,7-dimethylocta-2,6-dien-1-yl)-2,4-dihydroxy-6-pentylbenzenesulfonamide] | < 0.1 | 25.50 | > 1 |  | 
CCCCCc1cc(O)c(C/C=C(\C)CCC=C(C)C)c(O)c1S(=O)(=O)NC [Compound 20, 3-(3,7-dimethylocta-2,6-dien-1-yl)-2,4-dihydroxy-N-methyl-6-pentylbenzenesulfonamide] |  | 3.93 |  | 0.1 to 0.49 | > 1
CCCCCc1cc(O)c(C/C=C(\C)CCC=C(C)C)c(O)c1S(=O)(=O)NC1CCCCC1 [Compound 62, N-cyclohexyl-3-(3,7-dimethylocta-2,6-dien-1-yl)-2,4-dihydroxy-6-pentylbenzenesulfonamide] | 0.1 to 0.49 | 9.04 | > 1 |  | 
CCCCCc1cc(O)c(C/C=C(\C)CCC=C(C)C)c(O)c1S(=O)(=O)N1CCOCC1 [Compound 28, 2-(3,7-dimethylocta-2,6-dien-1-yl)-4-(morpholinosulfonyl)-5-pentylbenzene-1,3-diol] | < 0.1 | 266.67 | 0.5 to 0.99 |  | 
CCCCCCNS(=O)(=O)c1c(CCCCC)cc(O)c(C/C=C(\C)CCC=C(C)C)c1O [Compound 64, 3-(3,7-dimethylocta-2,6-dien-1-yl)-N-hexyl-2,4-dihydroxy-6-pentylbenzenesulfonamide] | 0.1 to 0.49 | 7.89 | > 1 |  | 
